Drawing on PubChem BioAssay (NCI), this text covers TGI and GI50 for 14 molecules.

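Interpolation was linear, between the two tested concentrations surrounding the appropriate level; five concentrations were tested over 48 hours in 96-well plates. At the GI50, growth is halved. TGI: total growth inhibition.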

Test systems include COLO 205 colon; CAKI-1 renal; UACC-257 melanoma; OVCAR-8 ovarian; HT29 colon; SR leukemia; MDA-MB-231 breast; NCI/ADR-RES ovarian; NCI-H522 lung; DLD-1 colon; DMS 273 small cell lung.
Holding throughout (assay): DTP human tumour cell line panel, 48 h

Take `OC12C3C4CC5C(C4[C@@H]1Br)C2[C@@](O)(c1c(F)c(F)c(F)c(F)c1F)C53` (stereo not given in full): the total growth inhibition concentration (TGI) with COLO 205 colon is above 100 µM; in the assay on CAKI-1 renal, 43.8 µM; in the assay on UACC-257 melanoma it was above 100 µM; in the assay on OVCAR-8 ovarian, above 100 µM; in the assay with HT29 colon, above 100 µM; in the assay with SR leukemia, 52.7 µM. Further, the TGI is above 100 µM in the assay on MDA-MB-231 breast, 85.9 µM with NCI/ADR-RES ovarian and above 100 µM in the assay with NCI-H522 lung.
In the case of `N#Cc1nc(C(F)(F)F)oc1N`, the TGI in the assay with COLO 205 colon, in the assay on CAKI-1 renal, in the assay on UACC-257 melanoma, in the assay with OVCAR-8 ovarian, in the assay on HT29 colon and in the assay with SR leukemia was above 100 µM each time. Also, the TGI in the assay with MDA-MB-231 breast, in the assay on NCI/ADR-RES ovarian and in the assay with NCI-H522 lung was above 100 µM each time.
As to `O=c1c2ncn(C3CCCCO3)c2n(-c2ccccc2)c(=S)n1-c1ccccc1` (stereo not given), the total growth inhibition concentration (TGI) with COLO 205 colon is above 100 µM; with CAKI-1 renal it was above 97.7 µM; in the assay with UACC-257 melanoma, above 100 µM; with OVCAR-8 ovarian, above 100 µM; in the assay with HT29 colon, above 100 µM; with SR leukemia it was above 100 µM. Further, the TGI was 73.5 µM in the assay with MDA-MB-231 breast, above 82.6 µM in the assay on NCI/ADR-RES ovarian and above 86.7 µM with NCI-H522 lung.
Regarding `Cc1ccc2ccc(=O)oc2c1`, the TGI in the assay with COLO 205 colon, in the assay with CAKI-1 renal, with UACC-257 melanoma, in the assay on OVCAR-8 ovarian, with HT29 colon and in the assay with SR leukemia was above 100 µM in each case. Besides, the TGI in the assay with MDA-MB-231 breast, in the assay on NCI/ADR-RES ovarian and in the assay with NCI-H522 lung was above 100 µM in each case.
With `COc1ccc(OC)c(C(=O)/C=C/c2cc(O)c(O)cc2F)c1`, the TGI turned out to be 31.7 µM with COLO 205 colon; 27.6 µM with CAKI-1 renal; 18.3 µM with UACC-257 melanoma; 24.3 µM in the assay on OVCAR-8 ovarian; 29.3 µM in the assay on HT29 colon; 4.62 µM in the assay on SR leukemia. Moreover, the TGI was 11.4 µM in the assay with MDA-MB-231 breast, above 89.5 µM in the assay on NCI/ADR-RES ovarian and 0.948 µM in the assay with NCI-H522 lung.
Take `CCOC(=O)CN=C1Nc2ccccc2C(=O)N2CSCC12` (stereo not given): the concentration for total growth inhibition (TGI) with COLO 205 colon, in the assay on CAKI-1 renal, in the assay on UACC-257 melanoma, with OVCAR-8 ovarian, with HT29 colon and in the assay with SR leukemia was above 100 µM in each case. The TGI in the assay on MDA-MB-231 breast, in the assay on NCI/ADR-RES ovarian and in the assay on NCI-H522 lung was above 100 µM each time.
Consider `Cc1ccc(S(=O)(=O)Nc2nc3ccccc3c(=O)n2C2CCCCC2)cc1`, for which the TGI in the assay with COLO 205 colon, in the assay on CAKI-1 renal, with UACC-257 melanoma, in the assay on OVCAR-8 ovarian, with HT29 colon and with SR leukemia was above 100 µM in each case. Besides, the TGI in the assay on MDA-MB-231 breast, with NCI/ADR-RES ovarian and in the assay with NCI-H522 lung was above 100 µM each time.
Regarding `O=C(Nc1ccc(Cl)cc1)c1cccc([N+](=O)[O-])c1O`, the total growth inhibition concentration (TGI) was 10.5 µM in the assay on COLO 205 colon; 17.1 µM in the assay on CAKI-1 renal; above 100 µM with DLD-1 colon; 8.13 µM in the assay on UACC-257 melanoma; above 69.8 µM in the assay with OVCAR-8 ovarian; above 73.1 µM in the assay with HT29 colon. Also, the figures for the TGI in the assay on SR leukemia, in the assay with DMS 273 small cell lung and in the assay on NCI-H522 lung were 31.5 µM, 23.3 µM and 6.36 µM, respectively.
Regarding `COc1ccc(-c2cc(C3CC3)nc(SCC(=O)O)c2C#N)cc1`, the TGI with COLO 205 colon, in the assay with CAKI-1 renal, in the assay on UACC-257 melanoma, with OVCAR-8 ovarian, with HT29 colon and in the assay with SR leukemia was above 100 µM each time. Moreover, the TGI was above 100 µM in the assay on MDA-MB-231 breast, above 100 µM in the assay with NCI/ADR-RES ovarian and 71.6 µM with NCI-H522 lung.
In the case of `CC(=O)c1cc2c(s1)C(=O)c1scc(C(C)=O)c1C2=O`, the total growth inhibition concentration (TGI) in the assay on COLO 205 colon was 3.54 µM; in the assay on CAKI-1 renal it was 2.34 µM; in the assay on UACC-257 melanoma it was 0.544 µM; in the assay on OVCAR-8 ovarian, 0.63 µM; in the assay on HT29 colon, 4.2 µM; with SR leukemia, 0.335 µM. Further, the TGI was 0.809 µM in the assay with MDA-MB-231 breast, 0.737 µM with NCI/ADR-RES ovarian and 1.28 µM in the assay with NCI-H522 lung.
Consider `Cc1ccc(C(=O)Cc2nc3ncccc3[nH]c2=O)cc1`, for which the TGI was above 100 µM with COLO 205 colon; above 100 µM in the assay with CAKI-1 renal; above 100 µM with UACC-257 melanoma; 53.1 µM in the assay with OVCAR-8 ovarian; above 100 µM with HT29 colon; above 100 µM with SR leukemia. Besides, the values for the TGI in the assay with MDA-MB-231 breast, with NCI/ADR-RES ovarian and in the assay on NCI-H522 lung were 60.7 µM, above 100 µM and above 100 µM, respectively.
Consider `O=C(Nc1ccc(-n2cc(-c3ccncc3)c(-c3ccc(O)c(Cl)c3)n2)cc1)c1cc(Cl)cc(Cl)c1`, for which the GI50 in the assay on COLO 205 colon is above 32.5 µM; in the assay with CAKI-1 renal it was 2.64 µM; in the assay on UACC-257 melanoma it was 13.8 µM; with OVCAR-8 ovarian, 1.66 µM; in the assay with HT29 colon it was 1.01 µM; in the assay on SR leukemia, 1.36 µM. Moreover, the GI50 in the assay with MDA-MB-231 breast is 0.647 µM; in the assay with NCI/ADR-RES ovarian, 1.92 µM; in the assay with NCI-H522 lung it was 1.03 µM. The TGI is above 32.5 µM in the assay on COLO 205 colon; 28 µM in the assay with CAKI-1 renal; above 32.5 µM with UACC-257 melanoma; above 32.5 µM in the assay on OVCAR-8 ovarian; 5.11 µM in the assay on HT29 colon; above 32.5 µM with SR leukemia. Also, the figures for the TGI with MDA-MB-231 breast, in the assay with NCI/ADR-RES ovarian and with NCI-H522 lung were 1.45 µM, above 32.5 µM and above 32.5 µM, respectively.
Take `NC(CCl)=NC1CN2CCC1CC2` (stereo not given): the TGI in the assay on COLO 205 colon was 73.8 µM; in the assay on CAKI-1 renal, above 100 µM; in the assay with UACC-257 melanoma it was above 100 µM; with OVCAR-8 ovarian, above 100 µM; in the assay with HT29 colon, above 100 µM; with SR leukemia it was above 100 µM. In addition, the TGI with MDA-MB-231 breast is above 100 µM; with NCI/ADR-RES ovarian it was above 100 µM; in the assay on NCI-H522 lung it was 58 µM.
As for `CN(C)c1ccc(/C=N/n2c(-c3ccccc3)nc3ccccc3c2=O)cc1`, the TGI with COLO 205 colon was above 100 µM; in the assay with CAKI-1 renal, above 100 µM; in the assay with UACC-257 melanoma, above 100 µM; in the assay on OVCAR-8 ovarian it was above 100 µM; in the assay on HT29 colon, above 100 µM; in the assay on SR leukemia it was 83.6 µM. Also, the TGI in the assay with MDA-MB-231 breast, in the assay on NCI/ADR-RES ovarian and in the assay on NCI-H522 lung was above 100 µM each time.

One may read the TGI as the concentration giving total growth inhibition. A word on the GI50: it is the concentration giving 50% growth inhibition.
